One assay has as its system DLD-1 parent cells. As to the kind of experiment: CellTiter-Glo DLD-1 parent cell assay. It is filed as cell-based. The note with it: Homo sapiens, 144 h, 6 days, read-out: DLD-1 CTG EC50. An excerpt:
(§1) The DLD-1 BRCA2 (−/−) CellTiter-Glo® assay measured the synthetic lethality of PARP1/2 inhibitors and was used as a surrogate to allow measurement of activity of both PARP1 and PARP2 in cells. If PARP1 and PARP2 are inhibited and are trapped onto chromatin during DNA replication, there is replication fork stalling and accumulation of double strand breaks. In BR CA wild-type cells, the resulting double strand DNA breaks are repaired via homologous recombination. In cells with mutation of BRCA1 or BRCA2, homologous recombination repair of DNA double strand breaks is defective, and cell death occurs after PARP1/2 inhibitor treatment (Lord C J, Ashworth A. PARP inhibitors: synthetic lethality in the clinic. Science. 2017 Mar. 17; 355(6330):1152-1158). Testing compounds in viability assays with the DLD-1-BR CA 2 (−/−) and DLD-1 parent cell enabled assessment on PARP1/2-dependent (cytotoxicity in the BRCA2 (−/−) cells only) vs. non-selective cytotoxicity in both cell lines.
(§2) Compound stock solutions (10 mM) were serially diluted in 3-fold increments in dimethyl sulfoxide (DMSO). Sample aliquots (120 nL) were dispensed into Corning® 384-well Flat Clear Bottom White Polystyrene TC-treated Microplates (Corning Life Sciences, Corning, NY, USA) using an ECHO® 550 acoustic Labcyte dispenser (Beckman-Coulter Life Sciences, Indianapolis, IN, USA) to achieve concentrations between 30 μM and 0.5 nM in the assay. In the assay, 40 μL of 500 DLD-1 parent cells (HORIZON® Therapeutics, Deerfield, IL, USA) or 40 μL of 1200 DLD-1-BRCA2 (−/−) cells (HORIZON Therapeutics) in complete growth medium containing RPMI 1640 growth medium (ThermoFisher Scientific, Waltham, MA, USA) supplemented with 20 mg/L L-glutamate, 25 mM HEPES (4-(2-hydroxyethyl)-1-piperazineethanesulfonic acid), 10% (v/v) heat inactivated FBS (fetal bovine serum), and 1% (w/v) Penicillin-Streptomycin were added.
(§3) Duplicate cell plates with 40 μL cells/well along with various concentrations of compounds were kept in Nunc™ Square BioAssay Dishes (Thermo Fisher Scientific) at 98% relative humidity in a 5% CO2 incubator at 37° C. for 6 days. On day 7, plates were moved to ambient lab conditions for 10 minutes until the temperature equilibrated. Following equilibration, CellTiter-Glo® Luminescent Cell Viability Assay reagent (Promega™, Madison, WI, USA) was added (15 μL) to each well of the plates. After a 20 minutes incubation, luminescence was detected using a ViewLux™ microplate imager (PerkinElmer, Waltham, MA, USA). Data analysis was performed using GraphPad Prism (Dotmatics, Boston, MA, USA).

The next assay has as its target PARP1 GST (Homo sapiens (Human), UniProt P09874). As to the kind of experiment: TR-FRET binding assay, PARP1. The note with it: Probe 2, 2 hours incubation. How it is done:
(§4) TR-FRET assays were used to measure the binding of compounds to TIPARP and PARP1, and to characterize biochemical selectivity. Compound stock solutions (10 mM) were serially diluted in 3-fold increments in dimethyl sulfoxide (DMSO). Diluted compounds were dispensed (30 nL) into white ProxiPlate-384-well plates (PerkinElmer, Waltham, MA, USA) using an ECHO® 550 acoustic Labcyte dispenser (Beckman-Coulter Life Sciences, Indianapolis, IN, USA) to achieve a final starting concentration of 30 μM to 0.5 nM in the assay. This was followed by addition of 5 μL of 2× protein/probe mix (Table 2) made in assay buffer (Tris-HCl 50 mM pH 8.0; 5 mM MgCl2; 5 μM ZnCl2; 1 mM DTT (dithiothreitol); 0.15% BSA (bovine serum albumin) (w/v); and 0.01% TritonX-100 (w/v)) at final concentrations listed in Table 2. Subsequently, 5 μL of 2× antibody (Tb-labeled anti-GST antibody, Thermo Fisher Scientific, Waltham, MA, USA) in HEPES buffered saline was added to each well at a final concentration of 1 nM. The samples were then incubated for 2 hours under ambient conditions. Fluorescence was measured and TR-FR ET ratios were determined on an EnVision multimode plate reader (PerkinElmer) using a 520 nanometer (nm) excitation wavelength and collecting fluorescence emission at 495 nm.

The next assay relates to DLD-1 BRCA2 (−/−) cells. Description: CellTiter-Glo DLD-1 BRCA2 (−/−) cell assay for PARP1/2 inhibition. The assay is classed as cell-based. Conditions: Homo sapiens, 144 h, 6 days, read-out: DLD-1 BRCA2 (−/−) CTG EC50.
Description: as §1, §2, §3

The test system of a further assay is NCI-H1373 cells. As to the kind of experiment: NCI-H1373 CellTiter-Glo cell assay for TIPARP inhibition. The assay is classed as cell-based, human. The note with it: Homo sapiens, NCI-H1373, 144 h; 6 days, 100 nM 10-Cl-BBQ in medium; read-out: NCI-H1373 CTG EC50. How it is done: The NCI-H1373 CellTiter-Glo® assay was used to determine cell numbers after TIPARP inhibition-induced cell cycle arrest, and enabled screening of compounds for cellular TIPARP inhibition potency.
Compound stock solutions (10 mM) were serially diluted in 3-fold increments in dimethyl sulfoxide. Sample aliquots (120 nL) were dispensed into Corning® 384-well Flat Clear Bottom White Polystyrene TC-treated Microplates (Corning Life Sciences, Corning, NY, USA) using an ECHO® 550 acoustic Labcyte dispenser (Beckman-Coulter Life Sciences, Indianapolis, IN, USA) to achieve final concentrations between 30 μM and 0.5 nM in the assay. This was followed by the addition of 40 μL of 1000 NCI-H1373 cells (ATCC®, Manassas, VA, USA) in complete growth medium RPMI 1640 growth medium (Thermo Fisher Scientific, Waltham, MA, USA) supplemented with 20 mg/L L-glutamate, 25 mM HEPES (4-(2-hydroxyethyl)-1-piperazineethanesulfonic acid), 10% (v/v) heat inactivated FBS (fetal bovine serum), 1% (w/v) penicillin-streptomycin, and 100 nM 10-Cl-BBQ (10-chloro-7H-benzimidazo[2,1-a]benz[de]isoquinolin-7-one, (Tocris, Minneapolis, MN, USA). Duplicate cell plates with 40 μL cells/well along with various concentrations of compounds were kept in Nunc™ Square BioAssay Dishes (Thermo Fisher Scientific) at 98% relative humidity in a 5% C02 incubator at 37° C. for 6 days. On day 7, plates were moved to ambient lab conditions for 10 minutes until the temperature equilibrated. Following equilibration, CellTiter-Glo® Luminescent Cell Viability Assay reagent (Promega™, Madison, WI, USA) was added (15 μL) to each well of the plates. After a 20 minutes incubation, luminescence was detected using a ViewLux™ microplate imager (PerkinElmer, Waltham, MA, USA). Data analysis was performed using GraphPad Prism (Dotmatics, Boston, MA, USA).

The next assay addresses TIPARP GST-(TEV) (Homo sapiens (Human), UniProt Q7Z3E1). Description: TR-FRET binding assay, TIPARP. Conditions: for IC50: TR-FRET, Probe 1, 2 hours incubation; for PARP1/TIPARP IC50 Ratio: ratio of PARP1 GST IC50 to TIPARP GST-(TEV) IC50.
Description: as §4, with “The full-length cDNA encoding the human TIPARP (NP_001171647.1, UniProtKB-Q7Z3E1) of 657 amino acids was the template to generate the expression construct. […] The TIPARP fusion protein includes GST, glutathione S-transferase, a 26 kDa protein whose DNA sequence is frequently integrated into expression vectors for production of recombinant proteins. A […], was cloned into vector pFastBacTM 1 (Thermo Fisher Scientific) with an N-terminal GST tag followed by a TEV protease site to produce the TIPARP fusion protein, TIPARP GST-(TEV). TR-FRET” for “TR-FRET”, “nm. […] [table]” for “nm.”

Bounds are passed on as bounds.

Chain of PARP1 GST (P09874 whole entry): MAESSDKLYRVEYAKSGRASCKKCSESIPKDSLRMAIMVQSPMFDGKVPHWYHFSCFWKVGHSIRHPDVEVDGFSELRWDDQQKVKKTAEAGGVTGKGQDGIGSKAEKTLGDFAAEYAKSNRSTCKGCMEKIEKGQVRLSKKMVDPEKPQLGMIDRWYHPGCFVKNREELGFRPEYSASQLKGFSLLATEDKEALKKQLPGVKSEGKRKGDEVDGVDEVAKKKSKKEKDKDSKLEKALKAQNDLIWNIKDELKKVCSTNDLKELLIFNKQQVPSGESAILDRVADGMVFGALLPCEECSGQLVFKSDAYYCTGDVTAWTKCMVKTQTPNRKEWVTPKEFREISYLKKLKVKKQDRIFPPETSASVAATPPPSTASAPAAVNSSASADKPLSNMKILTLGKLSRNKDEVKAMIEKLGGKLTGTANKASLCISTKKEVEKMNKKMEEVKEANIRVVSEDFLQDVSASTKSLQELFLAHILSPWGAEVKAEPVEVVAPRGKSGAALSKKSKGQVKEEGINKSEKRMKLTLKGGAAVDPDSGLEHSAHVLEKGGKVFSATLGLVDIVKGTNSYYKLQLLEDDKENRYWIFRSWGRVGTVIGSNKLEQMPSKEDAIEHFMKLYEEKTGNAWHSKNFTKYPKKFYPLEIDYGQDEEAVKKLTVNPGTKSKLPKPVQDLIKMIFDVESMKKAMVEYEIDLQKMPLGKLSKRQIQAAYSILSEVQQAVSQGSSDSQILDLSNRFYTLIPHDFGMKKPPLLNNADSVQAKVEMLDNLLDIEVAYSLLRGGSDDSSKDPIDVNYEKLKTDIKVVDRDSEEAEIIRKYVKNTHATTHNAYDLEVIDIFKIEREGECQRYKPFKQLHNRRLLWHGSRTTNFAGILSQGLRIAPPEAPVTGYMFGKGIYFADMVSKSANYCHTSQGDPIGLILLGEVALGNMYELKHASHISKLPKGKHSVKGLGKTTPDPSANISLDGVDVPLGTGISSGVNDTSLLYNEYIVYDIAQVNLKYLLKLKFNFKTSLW
Chain of TIPARP GST-(TEV) (Q7Z3E1 441-657): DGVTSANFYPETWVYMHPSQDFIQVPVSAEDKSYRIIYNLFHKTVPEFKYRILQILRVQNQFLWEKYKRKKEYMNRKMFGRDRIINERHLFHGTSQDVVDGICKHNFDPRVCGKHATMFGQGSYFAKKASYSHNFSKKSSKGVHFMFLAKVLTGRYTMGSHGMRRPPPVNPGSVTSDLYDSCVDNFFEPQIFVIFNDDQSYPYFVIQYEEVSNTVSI

In the case of `C[C@@H]1CN(c2ncc(C(C)(C)O)cn2)CCN1C(=O)[C@H]1C[C@@H](c2c[nH]c(=O)c(C(F)(F)F)c2)C1` [Example 9, 5-[(1S,3s)-3-{(2R)-4-[5-(2-hydroxypropan-2-yl)pyrimidin-2-yl]-2-methylpiperazine-1-carbonyl}cyclobutyl]-3-(trifluoromethyl)pyridin-2(1H)-one], the EC50 in the assay with DLD-1 parent cells was above 30000 nM; with DLD-1 BRCA2 (−/−) cells it was above 30000 nM; with NCI-H1373 cells it was 67.7 nM. Further, the IC50 stood at 4360 nM on PARP1 GST and 4.32 nM on TIPARP GST-(TEV). For the same compound, the “PARP1/TIPARP IC50 Ratio” value on TIPARP GST-(TEV) turned out to be 1010.
Take `C[C@H]1CN(C(=O)[C@H]2C[C@@H](c3c[nH]c(=O)c(C(F)(F)F)c3)C2)CCN1c1ncc(C(C)(C)O)cn1` [Example 10, 5-[(1R,3s)-3-{(3S)-4-[5-(2-hydroxypropan-2-yl)pyrimidin-2-yl]-3-methylpiperazine-1-carbonyl}cyclobutyl]-3-(trifluoromethyl)pyridin-2(1H)-one]: the EC50 was above 30000 nM in the assay on DLD-1 parent cells, above 30000 nM in the assay on DLD-1 BRCA2 (−/−) cells and 284 nM with NCI-H1373 cells. In addition, the figures for the IC50 on PARP1 GST and on TIPARP GST-(TEV) were 3080 nM and 10.1 nM, respectively. Further, the “PARP1/TIPARP IC50 Ratio” value at TIPARP GST-(TEV) was determined as 305.
Consider `C[C@H]1CN(c2ncc(C(C)(C)O)cn2)CCN1C(=O)[C@H]1C[C@@H](c2c[nH]c(=O)c(C(F)(F)F)c2)C1` [Example 11, 5-[(1R,3s)-3-{(2S)-4-[5-(2-hydroxypropan-2-yl)pyrimidin-2-yl]-2-methylpiperazine-1-carbonyl}cyclobutyl]-3-(trifluoromethyl)pyridin-2(1H)-one], for which the EC50 in the assay on DLD-1 parent cells was determined as 16000 nM; in the assay on DLD-1 BRCA2 (−/−) cells it was 1180 nM; with NCI-H1373 cells it was 337 nM. Moreover, the IC50 at PARP1 GST was found to be 616 nM; at TIPARP GST-(TEV), 10.9 nM. In addition, the “PARP1/TIPARP IC50 Ratio” value at TIPARP GST-(TEV) turned out to be 56.5.
As to `C[C@@H]1CN(c2ncc(C(F)(F)F)cn2)CCN1C(=O)[C@H]1C[C@@H](Cc2c[nH]c(=O)c(C(F)(F)F)c2)C1` [Example 12, 5-{[(1S,3s)-3-{(2R)-2-methyl-4-[5-(trifluoromethyl)pyrimidin-2-yl]piperazine-1-carbonyl}cyclobutyl]methyl}-3-(trifluoromethyl)pyridin-2(1H)-one], the EC50 worked out at 11100 nM in the assay with DLD-1 parent cells, 5480 nM with DLD-1 BRCA2 (−/−) cells and 29.2 nM in the assay with NCI-H1373 cells. The IC50 on PARP1 GST was 3650 nM; at TIPARP GST-(TEV), 3.16 nM. Further, the “PARP1/TIPARP IC50 Ratio” value on TIPARP GST-(TEV) amounted to 1160.
In the case of `C[C@@H]1CN(c2ncc(C(F)(F)F)cn2)C[C@H](C)N1C(=O)[C@H]1C[C@@H](Cc2c[nH]c(=O)c(C(F)(F)F)c2)C1` [Example 13, 5-{[(1s,3s)-3-{(2R,6S)-2,6-dimethyl-4-[5-(trifluoromethyl)pyrimidin-2-yl]piperazine-1-carbonyl}cyclobutyl]methyl}-3-(trifluoromethyl)pyridin-2(1H)-one], the EC50 with DLD-1 parent cells was determined as 11100 nM; in the assay on DLD-1 BRCA2 (−/−) cells, 6960 nM; with NCI-H1373 cells, 33.3 nM. Besides, the IC50 at PARP1 GST worked out at 7380 nM; at TIPARP GST-(TEV), 3.79 nM. In addition, on TIPARP GST-(TEV), the “PARP1/TIPARP IC50 Ratio” value is 1950.
In the case of `C[C@@H]1CN(C(=O)[C@H]2C[C@@H](Cc3c[nH]c(=O)c(C(F)(F)F)c3)C2)C[C@H](C)N1c1ncc(C(F)(F)F)cn1` [Example 14, 5-{[(1s,3s)-3-{(3R,5S)-3,5-dimethyl-4-[5-(trifluoromethyl)pyrimidin-2-yl]piperazine-1-carbonyl}cyclobutyl]methyl}-3-(trifluoromethyl)pyridin-2(1H)-one], the figures for the EC50 in the assay with DLD-1 parent cells, in the assay on DLD-1 BRCA2 (−/−) cells and with NCI-H1373 cells were 14300 nM, 4490 nM and 10.9 nM, respectively. Further, the IC50 is 4110 nM on PARP1 GST and 2.17 nM on TIPARP GST-(TEV). Also, at TIPARP GST-(TEV), the “PARP1/TIPARP IC50 Ratio” value came to 1890.

(Values after patent publication US20250333394A1, “Tiparp Inhibitor Compounds” (AbbVie Inc., priority 2024, published 2025).)
